Active and inactive are the calls of the source. The calls are words filed in the database; no cut-off is given here.
How the values were obtained:
HCT-116 [1] = assay: Induction of cell cycle arrest in human HCT-116 cells assessed as accumulation of cells at Sub-G1 phase at 20 uM incubated for 24 hrs by PI staining based flow cytometry analysis (reference value: 1.1 +/- 0.1%); format: functional
HCT-116 [2] = assay: Induction of PARylation in human HCT-116 cells at 1 uM incubated for 4 hrs by Western blotting analysis; format: functional, cell-based
[3] = test system: DNA topoisomerase 1/Deoxyribonucleic acid (Homo sapiens); assay: Induction of TOP1-DNA covalent complex stabilization in human HCT-116 cells after 2 to 8 hrs by immunofluorescence microscopic assay; format: cell-based; conditions: dose 20.0 µM, time 2-8 hrs
HCT-116 [4] = assay: Induction of cell cycle arrest in human HCT-116 cells assessed as accumulation of cells at G2 phase at 10 uM incubated for 48 hrs by PI staining based flow cytometry analysis (reference value: 26%); format: functional
[5] = biological target: Poly [ADP-ribose] polymerase 1 (Homo sapiens) (UniProt P09874); assay: Inhibition of recombinant human PARP1 at 30 uM incubated for 10 mins relative to control
Poly [ADP-ribose] polymerase 1 (Homo sapiens), sequence (P09874 whole entry): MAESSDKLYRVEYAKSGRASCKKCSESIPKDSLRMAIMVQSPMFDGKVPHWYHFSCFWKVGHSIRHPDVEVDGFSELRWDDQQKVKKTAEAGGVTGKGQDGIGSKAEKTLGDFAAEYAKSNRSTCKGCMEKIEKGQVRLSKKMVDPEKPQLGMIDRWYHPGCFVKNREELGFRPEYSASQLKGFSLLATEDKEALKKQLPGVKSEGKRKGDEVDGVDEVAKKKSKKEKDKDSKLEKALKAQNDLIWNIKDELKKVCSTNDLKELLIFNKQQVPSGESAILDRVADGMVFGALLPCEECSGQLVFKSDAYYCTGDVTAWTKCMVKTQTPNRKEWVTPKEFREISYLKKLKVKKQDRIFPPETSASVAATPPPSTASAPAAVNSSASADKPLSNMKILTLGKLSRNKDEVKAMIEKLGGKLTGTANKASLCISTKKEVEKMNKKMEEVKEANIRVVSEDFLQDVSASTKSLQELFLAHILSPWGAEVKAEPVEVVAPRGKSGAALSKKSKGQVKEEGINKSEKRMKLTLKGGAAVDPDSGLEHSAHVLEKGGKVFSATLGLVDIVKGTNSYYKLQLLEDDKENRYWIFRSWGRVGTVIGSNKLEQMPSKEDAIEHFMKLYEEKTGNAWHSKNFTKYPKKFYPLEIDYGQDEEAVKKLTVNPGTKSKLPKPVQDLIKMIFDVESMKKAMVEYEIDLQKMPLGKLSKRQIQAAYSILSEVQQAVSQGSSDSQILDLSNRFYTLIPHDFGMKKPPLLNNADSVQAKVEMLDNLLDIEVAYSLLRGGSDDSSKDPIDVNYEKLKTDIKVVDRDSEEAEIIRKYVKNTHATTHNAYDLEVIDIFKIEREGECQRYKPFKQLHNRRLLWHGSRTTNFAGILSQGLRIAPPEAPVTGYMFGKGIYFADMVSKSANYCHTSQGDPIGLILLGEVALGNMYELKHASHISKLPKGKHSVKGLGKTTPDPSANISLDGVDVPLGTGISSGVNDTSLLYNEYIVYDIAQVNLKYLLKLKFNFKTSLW

HCT-116 [6] = assay: Induction of cell cycle arrest in human HCT-116 cells incubated for 24 to 48 hrs by PI staining based flow cytometry analysis; format: functional; conditions: dose 5-20 µM, time 24-48 hrs
[7] = biological target: Poly [ADP-ribose] polymerase 1 (Homo sapiens) (UniProt P09874); assay: Inhibition of recombinant human PARP1 incubated for 10 mins; conditions: dose 10-30 µM
[8] = Stability in human plasma incubated for 2 hrs by HPLC analysis; format: ADME, cell-free; conditions: read-out: Stability
HCT-116 [9] = assay: Induction of cell cycle arrest in human HCT-116 cells assessed as accumulation of cells at S phase at 5 uM incubated for 48 hrs by PI staining based flow cytometry analysis (reference value: 17%); format: functional
PANC-1 = assay: Cytotoxicity against human PANC-1 cells at less than 10 uM incubated for 7 to 10 days by crystal violet staining based assay; format: functional, cell-based; conditions: time 7-10 day
HCT-116 [10] = assay: Induction of cell cycle arrest in human HCT-116 cells assessed as accumulation of cells at Sub-G1 phase at 20 uM incubated for 48 hrs by PI staining based flow cytometry analysis (reference value: 2.7 +/- 0.4%); format: functional
MIA PaCa-2 = assay: Cytotoxicity against human MIA PaCa-2 cells at less than 10 uM incubated for 7 to 10 days by crystal violet staining based assay; format: functional, cell-based; conditions: time 7-10 day
[11] = Stability in human plasma assessed as compound degradation incubated for 15 mins by HPLC analysis; format: ADME, cell-free; conditions: read-out: Drug degradation
HCT-116 [12] = assay: Induction of cell cycle arrest in human HCT-116 cells assessed as accumulation of cells at G2 phase at 5 uM incubated for 48 hrs by PI staining based flow cytometry analysis (reference value: 26%); format: functional
Calf thymus DNA = assay: Binding affinity to calf thymus pUC19 DNA assessed as intercalating activity by measuring conformational change in DNA at 50 to 300 uM incubated for 30 mins by EtBr staining based agarose gel electrophoresis; format: nucleic-acid assay; conditions: Bos taurus, dose 50-300 µM
[13] = test system: DNA topoisomerase 1/Deoxyribonucleic acid (Homo sapiens); assay: Induction of TOP1-DNA covalent complex stabilization in human HCT-116 cells after 2 to 6 hrs by RADAR assay; format: cell-based; conditions: dose 10-20 µM, time 2-6 hrs
HCT-116 [14] = assay: Induction of cell cycle arrest in human HCT-116 cells assessed as accumulation of cells at Sub-G1 phase at 10 uM incubated for 24 hrs by PI staining based flow cytometry analysis (reference value: 1.1 +/- 0.1%); format: functional
HCT-116 [15] = assay: Induction of cell cycle arrest in human HCT-116 cells assessed as accumulation of cells at Sub-G1 phase at 5 uM incubated for 48 hrs by PI staining based flow cytometry analysis (reference value: 2.7 +/- 0.4%); format: functional
[16] = biological target: T1, DNA topoisomerase 1 (Homo sapiens) (UniProt P11387); assay: Induction of TOP1 degradation in human HCT-116 cells at 20 uM after 2 to 24 hrs by alkaline lysis method; format: cell-based; conditions: time 2-24 hrs
T1 sequence (whole entry): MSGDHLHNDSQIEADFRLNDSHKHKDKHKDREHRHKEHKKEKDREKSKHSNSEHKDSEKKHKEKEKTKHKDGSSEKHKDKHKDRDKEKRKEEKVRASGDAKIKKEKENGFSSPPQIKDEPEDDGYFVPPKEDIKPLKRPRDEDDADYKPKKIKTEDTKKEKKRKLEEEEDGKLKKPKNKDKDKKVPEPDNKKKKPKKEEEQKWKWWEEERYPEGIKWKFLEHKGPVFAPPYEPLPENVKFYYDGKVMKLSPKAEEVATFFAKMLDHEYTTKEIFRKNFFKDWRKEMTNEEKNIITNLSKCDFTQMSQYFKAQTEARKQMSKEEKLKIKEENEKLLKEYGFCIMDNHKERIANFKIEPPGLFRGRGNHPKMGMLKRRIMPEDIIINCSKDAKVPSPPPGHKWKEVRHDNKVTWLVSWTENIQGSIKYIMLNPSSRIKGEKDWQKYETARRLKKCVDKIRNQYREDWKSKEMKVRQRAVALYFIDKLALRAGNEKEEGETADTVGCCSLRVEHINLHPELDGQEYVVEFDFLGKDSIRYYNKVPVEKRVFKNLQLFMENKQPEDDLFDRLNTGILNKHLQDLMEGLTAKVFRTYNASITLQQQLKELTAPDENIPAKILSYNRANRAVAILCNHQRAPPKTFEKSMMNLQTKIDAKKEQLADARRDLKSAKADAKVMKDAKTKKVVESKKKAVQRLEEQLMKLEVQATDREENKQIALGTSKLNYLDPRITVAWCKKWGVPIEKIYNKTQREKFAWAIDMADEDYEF

HCT-116 [17] = assay: Induction of DNA double stranded break in human HCT-116 cells assessed as increase in gammaH2AX level at 20 uM after 4 to 8 hrs by immunofluorescence assay; format: functional, cell-based; conditions: time 4-8 hrs
HCT-116 [18] = assay: Cytotoxicity against human HCT-116 cells incubated for 72 hrs by MTT assay; format: functional, cell-based; conditions: HCT-116, 72 h
[19] = biological target: T1, DNA topoisomerase 1 (Homo sapiens); assay: Inhibition of recombinant human Top1 assessed as reduction in plasmid relaxation at 10 to 20 uM using pUC19 plasmid DNA as substrate measured upto 30 mins by ethidium bromide staining based assay; conditions: dose 10-20 µM
HCT-116 [20] = assay: Induction of PARP1 trapping in human HCT-116 cells assessed as change in PARP1 level in chromatin fraction at 20 uM incubated for 4 to 8 hrs by SDS PAGE analysis; format: functional, cell-based; conditions: time 4-8 hrs
[21] = biological target: Poly [ADP-ribose] polymerase 1 (Homo sapiens) (UniProt P09874); assay: Inhibition of recombinant human PARP1 at 20 uM incubated for 10 mins relative to control
[22] = test system: DNA topoisomerase 1/Deoxyribonucleic acid (Homo sapiens); assay: Induction of TOP1-DNA covalent complex stabilization in human HCT-116 cells at 10 to 20 uM by RADAR assay; format: cell-based; conditions: dose 10-20 µM, time 2-6 hrs, TDE = time-dependent effect
HCT-116 [23] = assay: Induction of cell cycle arrest in human HCT-116 cells assessed as accumulation of cells at S phase at 10 uM incubated for 48 hrs by PI staining based flow cytometry analysis (reference value: 17%); format: functional
HCT-116 [24] = assay: Cytotoxicity against human HCT-116 cells at less than 10 uM incubated for 7 to 10 days by crystal violet staining based assay; format: functional, cell-based; conditions: time 7-10 day

O=C1c2cccc3cccc(c23)C(=O)N1CCSc1nnc(Cn2nc(Cc3ccc(F)cc3)c3ccccc3c2=O)o1
Activity (HCT-116 [1]): 39.1% | Activity (HCT-116 [2]): Active | Activity [3]: Dose-Dependent Effect | Activity (HCT-116 [4]): 32% | inhibition [5]: 35% | Activity (HCT-116 [6]): Dose-Dependent Effect | inhibition [7]: Dose-Dependent Effect | remaining at 2 h [8]: > 70% | Activity (HCT-116 [9]): 30% | Activity (PANC-1): Active | Activity (HCT-116 [10]): 57% | Activity (MIA PaCa-2): Active | metabolised at 0.25 h [11]: 20% | Activity (HCT-116 [12]): 29% | Activity (Calf thymus DNA): inactive | Activity [13]: Dose-Dependent Effect | Activity (HCT-116 [14]): 30.8% | Activity (HCT-116 [15]): 35% | Activity [16]: Active | Activity (HCT-116 [17]): Active | IC50 (HCT-116 [18]): 4 µM | inhibition [19]: Active | Activity (HCT-116 [20]): inactive | inhibition [21]: 25% | Activity [22]: Tde | Activity (HCT-116 [23]): 33% | Activity (HCT-116 [24]): Active
